In the test the target is human F508del-CFTR (Homo sapiens, UniProt P13569, DEL508-508). The test is described as follows: F508del-CFTR cell surface expression (corrector activity), DiscoveRx ß-galactosidase complementation chemiluminescence assay in recombinant U2OS cell line.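 On all read-outs here: U2OS cells co-expressing ProLink-tagged F508del-CFTR and a membrane-anchored enzyme acceptor, where more surface CFTR restores β-galactosidase activity measured by chemiluminescence.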 The conditions noted are these: for EC50: EC50, F508del-CFTR cell surface expression, geomean values; for Emax: U2OS, arithmetic mean values.
human F508del-CFTR, sequence (P13569 with tags, fused parts or gaps DEL508-508): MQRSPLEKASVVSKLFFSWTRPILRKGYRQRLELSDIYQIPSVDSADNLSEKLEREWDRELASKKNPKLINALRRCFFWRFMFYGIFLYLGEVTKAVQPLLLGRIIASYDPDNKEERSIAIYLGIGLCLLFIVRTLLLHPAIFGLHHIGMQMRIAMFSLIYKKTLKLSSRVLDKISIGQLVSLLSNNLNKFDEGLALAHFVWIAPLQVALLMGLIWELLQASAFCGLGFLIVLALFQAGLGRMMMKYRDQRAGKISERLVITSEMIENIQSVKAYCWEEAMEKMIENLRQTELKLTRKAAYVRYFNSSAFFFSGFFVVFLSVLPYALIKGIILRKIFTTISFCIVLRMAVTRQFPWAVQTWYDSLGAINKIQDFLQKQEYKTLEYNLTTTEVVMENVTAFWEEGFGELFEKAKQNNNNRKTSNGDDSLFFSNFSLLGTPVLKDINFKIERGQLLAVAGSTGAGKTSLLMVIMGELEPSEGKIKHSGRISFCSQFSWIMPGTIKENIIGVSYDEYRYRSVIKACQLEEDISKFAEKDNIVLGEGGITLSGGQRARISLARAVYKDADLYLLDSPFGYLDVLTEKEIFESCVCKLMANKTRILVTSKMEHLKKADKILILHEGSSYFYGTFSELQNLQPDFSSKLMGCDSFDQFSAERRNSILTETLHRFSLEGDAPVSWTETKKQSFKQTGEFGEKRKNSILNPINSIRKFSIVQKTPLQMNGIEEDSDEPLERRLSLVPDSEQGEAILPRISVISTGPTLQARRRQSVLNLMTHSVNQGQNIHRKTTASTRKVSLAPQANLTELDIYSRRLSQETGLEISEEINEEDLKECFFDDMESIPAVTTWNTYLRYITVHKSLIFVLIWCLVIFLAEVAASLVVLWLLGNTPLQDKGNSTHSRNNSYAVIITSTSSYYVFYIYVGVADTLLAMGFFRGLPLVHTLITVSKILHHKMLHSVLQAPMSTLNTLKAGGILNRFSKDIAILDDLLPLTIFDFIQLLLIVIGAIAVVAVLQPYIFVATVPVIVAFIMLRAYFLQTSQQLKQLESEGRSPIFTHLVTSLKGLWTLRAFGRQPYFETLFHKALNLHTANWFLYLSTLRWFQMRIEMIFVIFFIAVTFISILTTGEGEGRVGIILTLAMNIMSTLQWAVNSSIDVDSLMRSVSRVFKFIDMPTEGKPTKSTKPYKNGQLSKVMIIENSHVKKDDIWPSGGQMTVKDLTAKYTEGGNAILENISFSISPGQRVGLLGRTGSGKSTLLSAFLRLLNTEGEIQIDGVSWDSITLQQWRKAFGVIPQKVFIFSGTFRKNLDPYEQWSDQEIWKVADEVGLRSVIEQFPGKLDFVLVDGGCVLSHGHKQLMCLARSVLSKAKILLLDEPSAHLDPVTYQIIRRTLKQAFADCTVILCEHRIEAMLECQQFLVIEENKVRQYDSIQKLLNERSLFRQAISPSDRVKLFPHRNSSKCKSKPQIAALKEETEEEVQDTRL

Setting [1] is: U2OS cell line, 16h compound incubation.
[2] abbreviates: in relation to the Emax of the corrector lumacaftor (=100%), U2OS cell line, 16h compound incubation.
Where [3] appears, read: U2OS cells, 16h compound incubation.
Setting [4] is: in relation to Emax of corrector lumacaftor (=100%).

As usually defined, the EC50 is the concentration at which the effect is half-maximal. By Emax is commonly meant the greatest response seen or fitted, relative to the assay's reference. As for `COc1cccc(CCNC(=O)[C@@H]2CC(=O)N(C)[C@@H](CC(C)C)C(=O)N(C)C3(CC3)C(=O)N[C@H](Cc3ccccc3)COc3ccc4ccccc4c3C(=O)N2)c1` [Example 385, (3′S,7′S,13′R)-13′-benzyl-7′-isobutyl-N-(3-methoxyphenethyl)-6′,9′-dimethyl-1′,5′,8′,11′-tetraoxo-2′,3′,4′,5′,6′,7′,8′,9′,11′,12′,13′,14′-dodecahydro-1′H-spiro[cyclopropane-1,10′-naphtho[1,2-p][1]oxa[4,7,10,14]tetraazacycloheptadecine]-3′-carboxamide], the EC50 under setting [1] came to 0.191 µM. Further, the Emax under setting [2] was 326%.

Take `COc1cccc(CCNC(=O)[C@@H]2CC(=O)N(C)[C@@H](CC(C)C)C(=O)NC3(CC3)C(=O)N[C@H](Cc3ccccc3)COc3ccc4ccccc4c3C(=O)N2)c1` [Example 386, (3′S,7′S,13′R)-13′-benzyl-7′-isobutyl-N-(3-methoxyphenethyl)-6′-methyl-1′,5′,8′,11′-tetraoxo-2′,3′,4′,5′,6′,7′,8′,9′,11′,12′,13′,14′-dodecahydro-1′H-spiro[cyclopropane-1,10′-naphtho[1,2-p][1]oxa[4,7,10,14]tetraazacycloheptadecine]-3′-carboxamide]: the EC50 under setting [1] was found to be 0.393 µM. Further, the Emax under setting [2] worked out at 149%.

On to `CC(C)C[C@H]1C(=O)N2CCOC[C@@H]2C(=O)N[C@H](Cc2ccccc2)COc2ccc3ccccc3c2C(=O)N[C@H](C(=O)NCCc2ccc(-n3nccn3)cc2)CC(=O)N1C` [Example 387, (4aR,7R,18S,22S)-N-(4-(2H-1,2,3-triazol-2-yl)phenethyl)-7-benzyl-22-isobutyl-21-methyl-5,16,20,23-tetraoxo-1,2,4,4a,5,6,7,8,16,17,18,19,20,21,22,23-hexadecahydronaphtho[1,2-p][1,4]oxazino[3,4-f][1]oxa[4,7,10,14]tetraazacycloheptadecine-18-carboxamide], for which the EC50 under setting [1] was 0.342 µM. Under setting [2], the Emax was determined as 215%.

As for `COc1cccc(CCNC(=O)[C@@H]2CC(=O)N(C)[C@@H](CC(C)C)C(=O)N3CCN(C4CC4)C[C@H]3C(=O)N[C@H](Cc3ccccc3)COc3cnc4ccccc4c3C(=O)N2)c1` [Example 388, (9S,13S,19aS,22R)-22-benzyl-18-cyclopropyl-13-isobutyl-N-(3-methoxyphenethyl)-12-methyl-7,11,14,20-tetraoxo-7,8,9,10,11,12,13,14,17,18,19,19a,20,21,22,23-hexadecahydro-16H-pyrazino[2′,11:6,7][1]oxa[4,7,10,14]tetraazacycloheptadecino[17,16-c]quinoline-9-carboxamide], under setting [1], the EC50 amounted to 0.31 µM. For the same compound, the Emax under setting [2] is 163%.

With `COc1cccc(CCNC(=O)[C@@H]2CC(=O)N(C)[C@@H](CC(C)C)C(=O)N3CCN(C4CC4)C[C@@H]3C(=O)N[C@H](Cc3ccccc3)COc3cnc4ccccc4c3C(=O)N2)c1` [Example 389, (9S,13S,19aR,22R)-22-benzyl-18-cyclopropyl-13-isobutyl-N-(3-methoxyphenethyl)-12-methyl-7,11,14,20-tetraoxo-7,8,9,10,11,12,13,14,17,18,19,19a,20,21,22,23-hexadecahydro-16H-pyrazino[2′,1′:6,7][1]oxa[4,7,10,14]tetraazacycloheptadecino[17,16-c]quinoline-9-carboxamide], the EC50 under setting [1] was determined as 0.115 µM. In addition, the Emax under setting [2] was found to be 320%.

On to `COc1cccc(CCNC(=O)[C@@H]2CC(=O)N(C)[C@@H](CC(C)C)C(=O)N3CCN(C4CCC4)C[C@H]3C(=O)N[C@H](Cc3ccccc3)COc3cnc4ccccc4c3C(=O)N2)c1` [Example 390, (9S,13S,19aS,22R)-22-benzyl-18-cyclobutyl-13-isobutyl-N-(3-methoxyphenethyl)-12-methyl-7,11,14,20-tetraoxo-7,8,9,10,11,12,13,14,17,18,19,19a,20,21,22,23-hexadecahydro-16H-pyrazino[2′,11:6,7][1]oxa[4,7,10,14]tetraazacycloheptadecino[17,16-c]quinoline-9-carboxamide], for which the EC50 under setting [1] amounted to 0.269 µM. Also, the maximal effect (Emax) under setting [2] was determined as 188%.

Take `COc1cccc(CCNC(=O)[C@@H]2CC(=O)N(C)[C@@H](CC(C)C)C(=O)N3CCN(C4CCC4)C[C@@H]3C(=O)N[C@H](Cc3ccccc3)COc3cnc4ccccc4c3C(=O)N2)c1` [Example 391, (9S,13S,19aR,22R)-22-benzyl-18-cyclobutyl-13-isobutyl-N-(3-methoxyphenethyl)-12-methyl-7,11,14,20-tetraoxo-7,8,9,10,11,12,13,14,17,18,19,19a,20,21,22,23-hexadecahydro-16H-pyrazino[2′,1′:6,7][1]oxa[4,7,10,14]tetraazacycloheptadecino[17,16-c]quinoline-9-carboxamide]: the EC50 under setting [1] turned out to be 0.07 µM. Besides, the Emax under setting [2] came to 319%.

On to `CC(C)C[C@H]1C(=O)N2CCN(C3CC3)C[C@H]2C(=O)N[C@H](Cc2ccccc2)COc2cnc3ccccc3c2C(=O)N[C@H](C(=O)NCCc2ccc3c(c2)OCO3)CC(=O)N1C` [Example 392, (9S,13S,19aS,22R)-N-(2-(benzo[d][1,3]dioxol-5-yl)ethyl)-22-benzyl-18-cyclopropyl-13-isobutyl-12-methyl-7,11,14,20-tetraoxo-7,8,9,10,11,12,13,14,17,18,19,19a,20,21,22,23-hexadecahydro-16H-pyrazino[2′,1′:6,7][1]oxa[4,7,10,14]tetraazacycloheptadecino[17,16-c]quinoline-9-carboxamide], for which the EC50 under setting [1] was found to be 0.327 µM. Further, the Emax under setting [2] was 144%.

As for `CC(C)C[C@H]1C(=O)N2CCN(C3CC3)C[C@@H]2C(=O)N[C@H](Cc2ccccc2)COc2cnc3ccccc3c2C(=O)N[C@H](C(=O)NCCc2ccc3c(c2)OCO3)CC(=O)N1C` [Example 393, (9S,13S,19aR,22R)-N-(2-(benzo[d][1,3]dioxol-5-yl)ethyl)-22-benzyl-18-cyclopropyl-13-isobutyl-12-methyl-7,11,14,20-tetraoxo-7,8,9,10,11,12,13,14,17,18,19,19a,20,21,22,23-hexadecahydro-16H-pyrazino[2′,11:6,7][1]oxa[4,7,10,14]tetraazacycloheptadecino[17,16-c]quinoline-9-carboxamide], the EC50 under setting [1] was 0.118 µM. For the same compound, the maximal effect (Emax) under setting [2] amounted to 314%.

Take `CC(C)C[C@H]1C(=O)N2CCN(C3CCC3)C[C@H]2C(=O)N[C@H](Cc2ccccc2)COc2cnc3ccccc3c2C(=O)N[C@H](C(=O)NCCc2ccc3c(c2)OCO3)CC(=O)N1C` [Example 394, (9S,13S,19aS,22R)-N-(2-(benzo[d][1,3]dioxol-5-yl)ethyl)-22-benzyl-18-cyclobutyl-13-isobutyl-12-methyl-]: the EC50 under setting [1] was found to be 0.262 µM. The Emax under setting [2] was 151%.

Consider `CC(C)C[C@H]1C(=O)N2CCN(C3CCC3)C[C@@H]2C(=O)N[C@H](Cc2ccccc2)COc2cnc3ccccc3c2C(=O)N[C@H](C(=O)NCCc2ccc3c(c2)OCO3)CC(=O)N1C` [Example 395, (9S,13S,19aR,22R)-N-(2-(benzo[d][1,3]dioxol-5-yl)ethyl)-22-benzyl-18-cyclobutyl-13-isobutyl-12-methyl-7,11,14,20-tetraoxo-7,8,9,10,11,12,13,14,17,18,19,19a,20,21,22,23-hexadecahydro-16H-pyrazino[2′,11:6,7][1]oxa[4,7,10,14]tetraazacycloheptadecino[17,16-c]quinoline-9-carboxamide], for which the EC50 under setting [1] stood at 0.11 µM. Besides, under setting [2], the Emax was determined as 316%.

On to `COCCCN1C(=O)[C@H](CC(C)C)N(C)C(=O)C[C@@H](C(=O)NCCc2cccc(OC)c2)NC(=O)c2c(ccc3ccccc23)OC[C@@H](Cc2ccccc2)NC(=O)C12CC2` [Example 396, (3′S,7′S,13′R)-13′-benzyl-7′-isobutyl-N-(3-methoxyphenethyl)-9′-(3-methoxypropyl)-6′-methyl-1′,5′,8′,11′-tetraoxo-2′,3′,4′,5′,6′,7′,8′,9′,11′,12′,13′,14′-dodecahydro-1′H-spiro[cyclopropane-1,10′-naphtho[1,2-p][1]oxa[4,7,10,14]tetraazacycloheptadecine]-3′-carboxamide], for which the EC50 under setting [1] is 0.241 µM. Also, the Emax under setting [2] worked out at 190%.

On to `CCOc1cccc(CCNC(=O)[C@@H]2CC(=O)N(C)[C@@H](CC(C)C)C(=O)N3CCOC[C@@H]3C(=O)N[C@H](Cc3ccccc3)COc3ccc4ccccc4c3C(=O)N2)c1` [Example 397, (4aR,7R,18S,22S)-7-benzyl-N-(3-ethoxyphenethyl)-22-isobutyl-21-methyl-5,16,20,23-tetraoxo-1,2,4,4a,5,6,7,8,16,17,18,19,20,21,22,23-hexadecahydronaphtho[1,2-p][1,4]oxazino[3,4-f][1]oxa[4,7,10,14]tetraazacycloheptadecine-18-carboxamide], for which the EC50 under setting [1] came to 0.262 µM. Further, under setting [2], the Emax is 207%.

As to `CC(C)C[C@H]1C(=O)N2CCN(C3CC3)C[C@@H]2C(=O)N[C@H](Cc2ccccc2)COc2cnc3ccccc3c2C(=O)N[C@H](C(=O)NCCc2cccc(OC(F)F)c2)CC(=O)N1C` [Example 398, (9S,13S,19aR,22R)-22-benzyl-18-cyclopropyl-N-(3-(difluoromethoxy)phenethyl)-13-isobutyl-12-methyl-7,11,14,20-tetraoxo-7,8,9,10,11,12,13,14,17,18,19,19a,20,21,22,23-hexadecahydro-16H-pyrazino[2′,11:6,7][1]oxa[4,7,10,14]tetraazacycloheptadecino[17,16-c]quinoline-9-carboxamide], the EC50 under setting [3] was 0.125 µM. Under setting [4], the Emax worked out at 280%.

As to `CC(C)C[C@H]1C(=O)N2CCN(C3CC3)C[C@H]2C(=O)N[C@H](Cc2ccccc2)COc2cnc3ccccc3c2C(=O)N[C@H](C(=O)NCCc2cccc(OC(F)F)c2)CC(=O)N1C` [Example 399, (9S,13S,19aS,22R)-22-benzyl-18-cyclopropyl-N-(3-(difluoromethoxy)phenethyl)-13-isobutyl-12-methyl-7,11,14,20-tetraoxo-7,8,9,10,11,12,13,14,17,18,19,19a,20,21,22,23-hexadecahydro-16H-pyrazino[2′,1′:6,7][1]oxa[4,7,10,14]tetraazacycloheptadecino[17,16-c]quinoline-9-carboxamide], the EC50 under setting [3] turned out to be 0.506 µM. Moreover, the Emax under setting [4] turned out to be 146%.

The record behind these values is patent US20240208992A1, “MACROCYCLES AS CFTR MODULATORS” (Idorsia Pharmaceuticals Ltd, priority 2021, published 2024).
